Here are results for 14 molecules from US11324738B2, “Muscarinic agonists” (Heptares Therapeutics Limited, priority 2015, dated 2022).

Common to all, as to format: cell-based
For experiment [1], the target named is T1, human muscarinic M3 receptor (Homo sapiens, UniProt P20309).
T1 construct: expressed in transfected cells
As to the kind of experiment: Alphascreen Surefire phospho-ERK1/2 functional assay, CHO cells expressing M3. The note with it: for Emax: CHO, read-out: % Emax cf. ACh, M3; for EC50: agonist, CHO cells, phospho-ERK1/2, read-out: pEC50 M3 (converted). The procedure:
(§1) ERK1/2 phosphorylation is a downstream consequence of both Gq/11 and Gi/o protein coupled receptor activation, making it highly suitable for the assessment of M1, M3 (Gq/11 coupled) and M2, M4 receptors (Gi/o coupled), rather than using different assay formats for different receptor subtypes. CHO cells stably expressing the human muscarinic M1, M2, M3 or M4 receptor were plated (25K/well) onto 96-well tissue culture plates in MEM-alpha+10% dialysed FBS. Once adhered, cells were serum-starved overnight. Agonist stimulation was performed by the addition of 5 μL agonist to the cells for 5 min (37° C.). Media was removed and 50 μL of lysis buffer added. After 15 min, a 4 μL sample was transferred to 384-well plate and 7 μL of detection mixture added.
In general terms: Bead proximity is the source of the signal in Alpha formats.

In experiment [2] the target is T2, human muscarinic M2 receptor (Homo sapiens, UniProt P08172).
T2 construct: expressed in transfected cells
T2 sequence (P08172 1-466): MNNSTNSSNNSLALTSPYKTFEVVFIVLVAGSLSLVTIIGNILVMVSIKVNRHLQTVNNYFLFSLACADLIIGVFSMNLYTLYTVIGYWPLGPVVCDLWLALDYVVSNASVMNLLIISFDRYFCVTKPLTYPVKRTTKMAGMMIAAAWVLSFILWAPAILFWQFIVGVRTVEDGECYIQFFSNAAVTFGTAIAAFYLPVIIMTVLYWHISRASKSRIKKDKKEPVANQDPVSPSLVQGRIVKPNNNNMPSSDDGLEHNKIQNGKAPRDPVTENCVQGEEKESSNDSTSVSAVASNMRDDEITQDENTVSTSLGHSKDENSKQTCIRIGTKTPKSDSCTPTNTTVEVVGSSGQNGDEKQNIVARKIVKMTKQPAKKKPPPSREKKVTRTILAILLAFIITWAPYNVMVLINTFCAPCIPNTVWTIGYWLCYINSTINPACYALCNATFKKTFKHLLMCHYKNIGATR
As to the kind of experiment: Alphascreen Surefire phospho-ERK1/2 functional assay, CHO cells expressing M2. The note with it: for Emax: CHO, read-out: % Emax cf. ACh, M2; for EC50: agonist, CHO cells, phospho-ERK1/2, read-out: pEC50 M2 (converted). Here is the method:
as §1

Experiment [3] addresses T3, human muscarinic M4 receptor (Homo sapiens, UniProt P08173).
T3 construct: expressed in transfected cells
T3 sequence (P08173 1-479): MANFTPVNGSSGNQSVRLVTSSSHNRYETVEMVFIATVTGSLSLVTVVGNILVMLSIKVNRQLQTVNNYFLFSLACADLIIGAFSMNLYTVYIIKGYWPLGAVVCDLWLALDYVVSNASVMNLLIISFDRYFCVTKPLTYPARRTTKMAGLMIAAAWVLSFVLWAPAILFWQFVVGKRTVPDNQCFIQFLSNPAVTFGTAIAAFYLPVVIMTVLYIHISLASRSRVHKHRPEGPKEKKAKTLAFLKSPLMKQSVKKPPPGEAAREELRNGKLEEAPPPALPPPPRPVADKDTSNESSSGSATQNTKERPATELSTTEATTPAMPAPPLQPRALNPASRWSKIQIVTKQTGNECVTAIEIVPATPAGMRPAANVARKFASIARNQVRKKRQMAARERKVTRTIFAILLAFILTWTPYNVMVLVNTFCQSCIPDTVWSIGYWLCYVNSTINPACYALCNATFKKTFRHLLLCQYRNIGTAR
The experiment is described as follows: Alphascreen Surefire phospho-ERK1/2 functional assay, CHO cells expressing M4. The note with it: for Emax: CHO, read-out: % Emax cf. ACh, M4; for EC50: agonist, CHO cells, phospho-ERK1/2, read-out: pEC50 M4 (converted). The procedure:
as §1

In experiment [4] the target is T4, human muscarinic M1 receptor (Homo sapiens, UniProt P11229).
T4 construct: expressed in transfected cells
T4 sequence (P11229 1-460): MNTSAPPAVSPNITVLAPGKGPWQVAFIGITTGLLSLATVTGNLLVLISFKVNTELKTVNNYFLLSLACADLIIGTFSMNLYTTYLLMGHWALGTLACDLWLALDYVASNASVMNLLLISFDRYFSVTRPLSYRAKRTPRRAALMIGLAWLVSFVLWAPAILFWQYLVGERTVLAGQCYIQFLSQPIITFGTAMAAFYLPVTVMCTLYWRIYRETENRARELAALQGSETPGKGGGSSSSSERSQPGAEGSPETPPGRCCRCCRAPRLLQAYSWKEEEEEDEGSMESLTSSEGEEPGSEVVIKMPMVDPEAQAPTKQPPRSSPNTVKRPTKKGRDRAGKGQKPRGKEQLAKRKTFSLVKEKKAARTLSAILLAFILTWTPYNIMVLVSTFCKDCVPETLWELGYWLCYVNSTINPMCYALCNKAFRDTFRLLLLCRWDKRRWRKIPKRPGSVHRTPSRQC
The experiment is described as follows: Alphascreen Surefire phospho-ERK1/2 functional assay, CHO cells expressing M1. The note with it: for Emax: CHO, read-out: % Emax cf. ACh, M1; for EC50: agonist, CHO cells, phospho-ERK1/2, read-out: pEC50 M1 (converted). The procedure: as §1

The structures appear in SMILES notation.

T1 sequence (P20309 whole entry): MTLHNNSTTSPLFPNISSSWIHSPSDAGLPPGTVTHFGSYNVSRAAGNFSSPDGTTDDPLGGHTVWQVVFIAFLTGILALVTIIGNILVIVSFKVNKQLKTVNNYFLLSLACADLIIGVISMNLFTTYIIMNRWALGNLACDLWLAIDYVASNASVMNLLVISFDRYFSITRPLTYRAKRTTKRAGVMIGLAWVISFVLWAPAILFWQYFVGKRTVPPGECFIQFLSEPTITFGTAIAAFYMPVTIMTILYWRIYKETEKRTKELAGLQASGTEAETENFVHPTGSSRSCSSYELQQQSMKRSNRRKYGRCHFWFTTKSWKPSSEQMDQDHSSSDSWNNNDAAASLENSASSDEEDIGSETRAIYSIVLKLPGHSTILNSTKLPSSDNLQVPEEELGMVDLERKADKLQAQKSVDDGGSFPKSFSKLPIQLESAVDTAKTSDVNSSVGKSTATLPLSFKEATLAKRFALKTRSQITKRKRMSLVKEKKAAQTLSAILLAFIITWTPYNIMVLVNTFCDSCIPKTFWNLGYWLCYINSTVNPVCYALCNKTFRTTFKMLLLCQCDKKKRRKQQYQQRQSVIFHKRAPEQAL

A word on the Emax: it is the size of the effect at its maximum, as opposed to the concentration needed. Regarding `CCOC(=O)N1CC2(CC(N3CCC(N4CCCC4c4ccon4)CC3)C2)C1` (racemic) [Example 1-5 (racemic), ethyl 6-{4-[2-(1,2-oxazol-3-yl)pyrrolidin-1-yl]piperidin-1-yl}-2-azaspiro[3.3]heptane-2-carboxylate], the Emax in experiment [1] was determined as 10%; in experiment [2] it was 67%; in experiment [3], 64%; in experiment [4], 18%. The EC50 in experiment [1] was greater than 20000 nM; in experiment [2] it was greater than 20000 nM; in experiment [3] it was 39.8 nM; in experiment [4], greater than 20000 nM.

`COC(=O)N1CC2(CCC(N3CCC(c4nccn4C)CC3)C2)C1` (racemic) [Example 2-1 (racemic)]: the Emax in experiment [1] was 9%; in experiment [2], 17%; in experiment [3], 82%; in experiment [4], 42%. Also, the EC50 in experiment [1] is greater than 20000 nM; in experiment [2] it was greater than 20000 nM; in experiment [3] it was 15.8 nM; in experiment [4], 126 nM.

Regarding `CCOC(=O)N1CC2(CCC(N3CCC(c4nccn4C)CC3)C2)C1` (racemic) [Example 2-2 (racemic), Ethyl 6-[4-(1-methyl-1H-imidazol-2-yl)piperidin-1-yl]-2-azaspiro[3.4]octane-2-carboxylate], the Emax in experiment [1] came to 5%; in experiment [2], 7%; in experiment [3], 102%; in experiment [4], 7%. Besides, the EC50 in experiment [1] was greater than 20000 nM; in experiment [2] it was greater than 20000 nM; in experiment [3], 31.6 nM; in experiment [4], 501 nM.

For the molecule `CCOC(=O)N1CC2(CCC(N3CCC(n4cccn4)CC3)C2)C1` (racemic) [Example 2-3 (racemic), Ethyl 6-[4-(1H-pyrazol-1-yl)piperidin-1-yl]-2-azaspiro[3.4]octane-2-carboxylate], the maximal response (Emax) worked out at 5% in experiment [1], 2% in experiment [2], 94% in experiment [3] and 105% in experiment [4]. Also, the EC50 in experiment [1] is greater than 20000 nM; in experiment [2], greater than 20000 nM; in experiment [3] it was 1 nM; in experiment [4] it was 3.98 nM.

With `CCOC(=O)N1CC2(CCC(N3CCC([C@@H]4CCCN4C(=O)NC)CC3)C2)C1` (mixture of isomers) [Example 2-4 (mixture of isomers), Ethyl 6-{4-[(2S)-1-(methylcarbamoyl)pyrrolidin-2-yl]piperidin-1-yl}-2-azaspiro[3.4]octane-2-carboxylate], the Emax in experiment [1] was 2%; in experiment [2] it was 4%; in experiment [3], 56%; in experiment [4], 39%. Further, the EC50 was greater than 20000 nM in experiment [1], greater than 20000 nM in experiment [2], 3.16 nM in experiment [3] and greater than 20000 nM in experiment [4].

`CCOC(=O)N1CC2(CCC(N3CCC(N4C(=O)CC[C@@H]4C)CC3)C2)C1` (mixture of isomers) [Example 2-5 (mixture of isomers), ethyl 6-{4-[(2S)-2-methyl-5-oxopyrrolidin-1-yl]piperidin-1-yl}-2-azaspiro[3.4]octane-2-carboxylate]: the maximal effect (Emax) in experiment [1] came out at 3%; in experiment [2] it was 6%; in experiment [3], 36%; in experiment [4], 38%. The EC50 in experiment [1] was greater than 20000 nM; in experiment [2] it was greater than 20000 nM; in experiment [3] it was 12.6 nM; in experiment [4], 158 nM.

Regarding `CCOC(=O)N1CC2(CCC(N3CCC(N4C(=O)CC[C@@H]4CC)CC3)C2)C1` (mixture of isomers) [Example 2-6 (mixture of isomers), Ethyl 6-{4-[(2S)-2-ethyl-5-oxopyrrolidin-1-yl]piperidin-1-yl}-2-azaspiro[3.4]octane-2-carboxylate], the Emax was determined as 13% in experiment [1], 8% in experiment [2], 59% in experiment [3] and 71% in experiment [4]. In addition, the EC50 in experiment [1] was greater than 20000 nM; in experiment [2], greater than 20000 nM; in experiment [3], 7.94 nM; in experiment [4], 15.8 nM.

As to `CCOC(=O)N1CC2(CCC(N3CCC(N4C(=O)CC[C@H]4C)CC3)C2)C1` (mixture of isomers) [Example 2-7 (mixture of isomers), Ethyl 6-{4-[(2R)-2-methyl-5-oxopyrrolidin-1-yl]piperidin-1-yl}-2-azaspiro[3.4]octane-2-carboxylate], the Emax in experiment [1] stood at 53%; in experiment [2] it was 9%; in experiment [3], 69%; in experiment [4], 71%. Moreover, the EC50 in experiment [1] was greater than 20000 nM; in experiment [2], greater than 20000 nM; in experiment [3], 3.98 nM; in experiment [4], 39.8 nM.

`CCOC(=O)N1CC2(CCC(N3CCC(N4C(=O)CC[C@H]4CC)CC3)C2)C1` (mixture of isomers) [Example 2-9 (mixture of isomers), Ethyl 6-{4-[(2R)-2-ethyl-5-oxopyrrolidin-1-yl]piperidin-1-yl}-2-azaspiro[3.4]octane-2-carboxylate]: the Emax in experiment [1] amounted to 8%; in experiment [2], 11%; in experiment [3], 123%; in experiment [4], 100%. For the same molecule, the EC50 in experiment [1] was greater than 20000 nM; in experiment [2] it was greater than 20000 nM; in experiment [3], 3.16 nM; in experiment [4], 39.8 nM.

As to `CCOC(=O)N1CC2(CCC(N3CCC(N4CC(F)(F)C[C@@H]4CO)CC3)C2)C1` (mixture of isomers) [Example 2-10 (mixture of isomers), Ethyl 6-{4-[(2R)-4,4-difluoro-2-(hydroxymethyl)pyrrolidin-1-yl]piperidin-1-yl}-2-azaspiro[3.4]octane-2-carboxylate], the maximal response (Emax) amounted to 32% in experiment [3] and 6% in experiment [4]. Further, the EC50 in experiment [3] was 6.31 nM; in experiment [4] it was greater than 20000 nM.

For `COC(=O)N1CC2(CC(N3CCC(c4nccn4C)CC3)C2)C1` [Example 1-1, Methyl 6-[4-(1-methyl-1H-imidazol-2-yl)piperidin-1-yl]-2-azaspiro[3.3]heptane-2-carboxylate], in experiment [3], the Emax turned out to be 73% and the EC50 is 316 nM. Further, in experiment [4], the Emax is 113% and the EC50 is 3160 nM.

Regarding `CCOC(=O)N1CC2(CC(N3CCC(c4nccn4C)CC3)C2)C1` [Example 1-2, Ethyl 6-[4-(1-methyl-1H-imidazol-2-yl)piperidin-1-yl]-2-azaspiro[3.3]heptane-2-carboxylate], in experiment [3], the Emax was 100% and the EC50 was 1260 nM. In experiment [4], the Emax came to 100% and the EC50 was 10000 nM.

For `CCOC(=O)N1CC2(CC(N3CCC(N4C(=O)CC[C@@H]4C)CC3)C2)C1` [Example 1-8, Ethyl 6-{4-[(2S)-2-methyl-5-oxopyrrolidin-1-yl]piperidin-1-yl}-2-azaspiro[3.3]heptane-2-carboxylate], in experiment [3], the Emax stood at 78% and the EC50 was 200 nM. In addition, in experiment [4], the Emax amounted to 67% and the EC50 was 794 nM.

As to `CCOC(=O)N1CC2(CC(N3CCC(N4C(=O)CC[C@H]4C)CC3)C2)C1` [Example 1-9], in experiment [3], the maximum response (Emax) turned out to be 117% and the EC50 was 158 nM. Moreover, in experiment [4], the Emax was determined as 101% and the EC50 was 1580 nM.
